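Grown in 96-well plates, cells were treated for 48 hours with each compound at five concentrations. Insufficient inhibition: endpoint recorded as highest concentration tested. Here, GI50 denotes the concentration required for 50% inhibition of growth. The concentration for full growth arrest is given as TGI.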
Assays:
Assay in all cases: inhibition of tumour cell growth, NCI panel, 48 h
SF-268 CNS = test system: SF-268 CNS
MCF7 breast = test system: MCF7 breast
K-562 leukemia = test system: K-562 leukemia
RPMI-8226 leukemia = test system: RPMI-8226 leukemia
BT-549 breast = test system: BT-549 breast
EKVX NSCLC = test system: EKVX NSCLC
SK-OV-3 ovarian = test system: SK-OV-3 ovarian
SF-295 CNS = test system: SF-295 CNS
HCT-15 colon = test system: HCT-15 colon
MALME-3M melanoma = test system: MALME-3M melanoma
UACC-257 melanoma = test system: UACC-257 melanoma
OVCAR-8 ovarian = test system: OVCAR-8 ovarian
A549 NSCLC = test system: A549 NSCLC
HL-60(TB) leukemia = test system: HL-60(TB) leukemia
COLO 205 colon = test system: COLO 205 colon
IGROV1 ovarian = test system: IGROV1 ovarian
SR leukemia = test system: SR leukemia
NCI-H460 lung = test system: NCI-H460 lung
LOX IMVI melanoma = test system: LOX IMVI melanoma
CCRF-CEM leukemia = test system: CCRF-CEM leukemia
PC-3 prostate = test system: PC-3 prostate
NCI-H23 lung = test system: NCI-H23 lung
HOP-62 NSCLC = test system: HOP-62 NSCLC
SN12C renal = test system: SN12C renal
U251 CNS = test system: U251 CNS
A498 renal = test system: A498 renal
NCI-H226 lung = test system: NCI-H226 lung
SNB-19 CNS = test system: SNB-19 CNS
OVCAR-5 ovarian = test system: OVCAR-5 ovarian
RXF 393 renal = test system: RXF 393 renal
MDA-MB-468 breast = test system: MDA-MB-468 breast
CAKI-1 renal = test system: CAKI-1 renal
SK-MEL-5 melanoma = test system: SK-MEL-5 melanoma
OVCAR-3 ovarian = test system: OVCAR-3 ovarian
SW-620 colon = test system: SW-620 colon
SK-MEL-28 melanoma = test system: SK-MEL-28 melanoma
MOLT-4 leukemia = test system: MOLT-4 leukemia
SF-539 CNS = test system: SF-539 CNS
HCC-2998 colon = test system: HCC-2998 colon
DU-145 prostate = test system: DU-145 prostate
OVCAR-4 ovarian = test system: OVCAR-4 ovarian
HT29 colon = test system: HT29 colon
HS 578T breast = test system: HS 578T breast
TK-10 renal = test system: TK-10 renal
KM12 colon = test system: KM12 colon
NCI-H522 lung = test system: NCI-H522 lung
786-0 renal = test system: 786-0 renal
T-47D breast = test system: T-47D breast
M14 melanoma = test system: M14 melanoma
NCI/ADR-RES ovarian = test system: NCI/ADR-RES ovarian
HOP-92 NSCLC = test system: HOP-92 NSCLC
ACHN renal = test system: ACHN renal
UACC-62 melanoma = test system: UACC-62 melanoma
MDA-MB-435 = test system: MDA-MB-435
HCT-116 colon = test system: HCT-116 colon

NCCCCn1c(SCCc2c[nH]c3ccccc23)nnc1-c1ccc2ccccc2n1
GI50 (SF-268 CNS): 5.69 µM | TGI (SF-268 CNS): 12.1 µM | GI50 (MCF7 breast): 5.38 µM | TGI (MCF7 breast): 10.4 µM | GI50 (K-562 leukemia): 5.58 µM | TGI (K-562 leukemia): 13.2 µM | GI50 (RPMI-8226 leukemia): 5.41 µM | TGI (RPMI-8226 leukemia): 13.9 µM | GI50 (BT-549 breast): 5.67 µM | TGI (BT-549 breast): 10.7 µM | GI50 (EKVX NSCLC): 5.32 µM | TGI (EKVX NSCLC): 10.6 µM | GI50 (SK-OV-3 ovarian): 5.69 µM | TGI (SK-OV-3 ovarian): 11.2 µM | GI50 (SF-295 CNS): 5.65 µM | TGI (SF-295 CNS): 10.7 µM | GI50 (HCT-15 colon): 6.26 µM | TGI (HCT-15 colon): 11.5 µM | GI50 (MALME-3M melanoma): 5.35 µM | TGI (MALME-3M melanoma): 10.3 µM | GI50 (UACC-257 melanoma): 5.78 µM | TGI (UACC-257 melanoma): 11 µM | GI50 (OVCAR-8 ovarian): 5.63 µM | TGI (OVCAR-8 ovarian): 10.8 µM | GI50 (A549 NSCLC): 5.1 µM | TGI (A549 NSCLC): 9.87 µM | GI50 (HL-60(TB) leukemia): 4.99 µM | TGI (HL-60(TB) leukemia): 11.4 µM | GI50 (COLO 205 colon): 4.54 µM | TGI (COLO 205 colon): 9.3 µM | GI50 (IGROV1 ovarian): 5.84 µM | TGI (IGROV1 ovarian): 11.1 µM | GI50 (SR leukemia): 5.88 µM | TGI (SR leukemia): 12.7 µM | GI50 (NCI-H460 lung): 6.17 µM | TGI (NCI-H460 lung): 11.7 µM | GI50 (LOX IMVI melanoma): 5.28 µM | TGI (LOX IMVI melanoma): 10 µM | GI50 (CCRF-CEM leukemia): 7.21 µM | TGI (CCRF-CEM leukemia): 20.3 µM | GI50 (PC-3 prostate): 5.35 µM | TGI (PC-3 prostate): 11.6 µM | GI50 (NCI-H23 lung): 5.57 µM | TGI (NCI-H23 lung): 10.5 µM | GI50 (HOP-62 NSCLC): 5.35 µM | TGI (HOP-62 NSCLC): 10.5 µM | GI50 (SN12C renal): 5.6 µM | TGI (SN12C renal): 10.5 µM | GI50 (U251 CNS): 5.36 µM | TGI (U251 CNS): 10.2 µM | GI50 (A498 renal): 6.06 µM | TGI (A498 renal): 11.2 µM | GI50 (NCI-H226 lung): 5.29 µM | TGI (NCI-H226 lung): 10.8 µM | GI50 (SNB-19 CNS): 6.3 µM | TGI (SNB-19 CNS): 12.8 µM | GI50 (OVCAR-5 ovarian): 5.66 µM | TGI (OVCAR-5 ovarian): 10.8 µM | GI50 (RXF 393 renal): 4.8 µM | TGI (RXF 393 renal): 9.4 µM | GI50 (MDA-MB-468 breast): 4.94 µM | TGI (MDA-MB-468 breast): 9.58 µM | GI50 (CAKI-1 renal): 5.74 µM | TGI (CAKI-1 renal): 11.9 µM | GI50 (SK-MEL-5 melanoma): 5.84 µM | TGI (SK-MEL-5 melanoma): 10.6 µM | GI50 (OVCAR-3 ovarian): 5.16 µM | TGI (OVCAR-3 ovarian): 10.2 µM | GI50 (SW-620 colon): 5.51 µM | TGI (SW-620 colon): 11.1 µM | GI50 (SK-MEL-28 melanoma): 5.94 µM | TGI (SK-MEL-28 melanoma): 10.8 µM | GI50 (MOLT-4 leukemia): 5.47 µM | TGI (MOLT-4 leukemia): 13.1 µM | GI50 (SF-539 CNS): 5.85 µM | TGI (SF-539 CNS): 10.6 µM | GI50 (HCC-2998 colon): 6.01 µM | TGI (HCC-2998 colon): 10.9 µM | GI50 (DU-145 prostate): 6.51 µM | TGI (DU-145 prostate): 12.2 µM | GI50 (OVCAR-4 ovarian): 5.75 µM | TGI (OVCAR-4 ovarian): 12 µM | GI50 (HT29 colon): 5.28 µM | TGI (HT29 colon): 10.4 µM | GI50 (HS 578T breast): 5.6 µM | TGI (HS 578T breast): 14.6 µM | GI50 (TK-10 renal): 5.91 µM | TGI (TK-10 renal): 10.9 µM | GI50 (KM12 colon): 6.54 µM | TGI (KM12 colon): 12.3 µM | GI50 (NCI-H522 lung): 5.35 µM | TGI (NCI-H522 lung): 10.4 µM | GI50 (786-0 renal): 5.9 µM | TGI (786-0 renal): 10.9 µM | GI50 (T-47D breast): 6.08 µM | TGI (T-47D breast): 14.6 µM | GI50 (M14 melanoma): 5.48 µM | TGI (M14 melanoma): 10.4 µM | GI50 (NCI/ADR-RES ovarian): 6.29 µM | TGI (NCI/ADR-RES ovarian): 13.4 µM | GI50 (HOP-92 NSCLC): 4.59 µM | TGI (HOP-92 NSCLC): 10.5 µM | GI50 (ACHN renal): 5.42 µM | TGI (ACHN renal): 10.3 µM | GI50 (UACC-62 melanoma): 5.46 µM | TGI (UACC-62 melanoma): 10.2 µM | GI50 (MDA-MB-435): 6.27 µM | TGI (MDA-MB-435): 11.8 µM | GI50 (HCT-116 colon): 4.74 µM | TGI (HCT-116 colon): 9.31 µM

From PubChem BioAssay (NCI)
